# Test results reported in US6770596B1, “Fused tricyclic compounds, process for their preparation, and herbicidal compositions containing them” (Ishihara Sangyo Kaisha Ltd., priority 2002, dated 2004).
# Columns and labels:
# Format in all cases: in vivo
# [1] = system: large crabgrass (Digitaria sanguinalis, DIS); assay: Post-emerge test, large crabgrass; settings: 250 g ai/ha, 14 days after application, rating scale 0-100 (0 no damage, 100 complete death)
# Outline: (§1)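 Scores use a 0-100 visual scale, where 100 is complete plant death, rated 14 days post-treatment. Foliar application at 8-1000 g ai/ha, acetone solution at 187 l/ha with 0.25% v/v non-ionic surfactant. Plants grown 8-21 days, typically 2-3 leaf stage.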
# [2] = system: ivyleaf morningglory (Ipomoea hederacea, IPH); assay: Pre-emerge test, ivyleaf morningglory; settings: 250 g ai/ha, 14 days after application, rating scale 0-100 (0 no damage, 100 complete death)
# Outline: (§2)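 Pots (10 cm, sandy loam mix) were seeded one day ahead of spraying. Test materials, dissolved in acetone, went on at 8–1000 g ai/ha in a 187 l/ha spray volume. Damage was scored 14 days later from 0 (none) to 100 (total kill).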
# [3] = system: cocklebur (Xanthium strumariunt, XAS); assay: Pre-emerge test, cocklebur; settings: 250 g ai/ha, 14 days after application, rating scale 0-100 (0 no damage, 100 complete death)
# Outline: as §2
# [4] = system: lambsquarters (Chenopodium album, CHA); assay: Pre-emerge test, lambsquarters; settings: 250 g ai/ha, 14 days after application, rating scale 0-100 (0 no damage, 100 complete death)
# Outline: as §2
# [5] = system: barnyardgrass (Echinachloa crus-galli, ECC); assay: Pre-emerge test, barnyardgrass; settings: 250 g ai/ha, 14 days after application, rating scale 0-100 (0 no damage, 100 complete death)
# Outline: as §2
# [6] = system: common ragweed (Ambrosia artemisiifolia L., AML); assay: Post-emerge test, common ragweed; settings: 250 g ai/ha, 14 days after application, rating scale 0-100 (0 no damage, 100 complete death)
# Outline: as §1
# [7] = system: upland rice (Oryza sp., var.Tebonnet, RICE); assay: Post-emerge test, crop damage upland rice
# Outline: as §1
# [8] = system: ivyleaf morningglory (Ipomoea hederacea, IPH); assay: Post-emerge test, ivyleaf morningglory; settings: 250 g ai/ha, 14 days after application, rating scale 0-100 (0 no damage, 100 complete death)
# Outline: as §1
# [9] = system: large crabgrass (Digitaria sanguinalis, DIS); assay: Pre-emerge test, large crabgrass; settings: 250 g ai/ha, 14 days after application, rating scale 0-100 (0 no damage, 100 complete death)
# Outline: as §2
# [10] = system: cocklebur (Xanthium strumariunt, XAS); assay: Post-emerge test, cocklebur; settings: 250 g ai/ha, 14 days after application, rating scale 0-100 (0 no damage, 100 complete death)
# Outline: as §1
# [11] = system: redroot pigweed (Amaranthus retroflexus, AMR); assay: Post-emerge test, redroot pigweed; settings: 250 g ai/ha, 14 days after application, rating scale 0-100 (0 no damage, 100 complete death)
# Outline: as §1
# [12] = system: common ragweed (Ambrosia artemisiifolia L., AML); assay: Pre-emerge test, common ragweed; settings: 250 g ai/ha, 14 days after application, rating scale 0-100 (0 no damage, 100 complete death)
# Outline: as §2
# [13] = system: velvetleaf (Abutilon theophrasti, ABT); assay: Post-emerge test, velvetleaf; settings: 250 g ai/ha, 14 days after application, rating scale 0-100 (0 no damage, 100 complete death)
# Outline: as §1
# [14] = system: green foxtail (Setaria viridis, SEV); assay: Pre-emerge test, green foxtail; settings: 250 g ai/ha, 14 days after application, rating scale 0-100 (0 no damage, 100 complete death)
# Outline: as §2
# [15] = system: johnsongrass (Sorghum halepense, SOH); assay: Pre-emerge test, johnsongrass; settings: 250 g ai/ha, 14 days after application, rating scale 0-100 (0 no damage, 100 complete death)
# Outline: as §2
# [16] = system: upland rice (Oryza sp., var.Tebonnet, RICE); assay: Pre-emerge test, crop damage upland rice
# Outline: (§3)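 Seeds planted 1 day pre-application in sandy loam soil mix; acetone solutions sprayed at 8 to 1000 g ai/ha (187 l/ha, flat fan nozzle, track sprayer). 14 d later, visual damage scored on a 0–100 scale.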
# [17] = system: wheat (Triticum aestivum); assay: Pre-emerge test, crop damage wheat
# Outline: as §3
# [18] = system: lambsquarters (Chenopodium album, CHA); assay: Post-emerge test, lambsquarters; settings: 250 g ai/ha, 14 days after application, rating scale 0-100 (0 no damage, 100 complete death)
# Outline: as §1
# [19] = system: johnsongrass (Sorghum halepense, SOH); assay: Post-emerge test, johnsongrass; settings: 250 g ai/ha, 14 days after application, rating scale 0-100 (0 no damage, 100 complete death)
# Outline: as §1
# [20] = system: wheat (Triticum aestivum); assay: Post-emerge test, crop damage wheat
# Outline: as §1
# [21] = system: sicklepod (Cassia obtusifolia, CAO); assay: Post-emerge test, sicklepod; settings: 250 g ai/ha, 14 days after application, rating scale 0-100 (0 no damage, 100 complete death)
# Outline: as §1
# [22] = system: field corn (Zea mays L., var. Dekalb 535, CORN); assay: Pre-emerge test, crop damage field corn
# Outline: as §3
# [23] = system: field corn (Zea mays L., var. Dekalb 535, CORN); assay: Post-emerge test, crop damage field corn
# Outline: as §1
# [24] = system: soybean (Glycine max L., var. Pella 86, SOY); assay: Post-emerge test, crop damage soybean
# Outline: as §1
# [25] = system: soybean (Glycine max L., var. Pella 86, SOY); assay: Pre-emerge test, crop damage soybean
# Outline: as §3
# [26] = system: green foxtail (Setaria viridis, SEV); assay: Post-emerge test, green foxtail; settings: 250 g ai/ha, 14 days after application, rating scale 0-100 (0 no damage, 100 complete death)
# Outline: as §1
# [27] = system: sicklepod (Cassia obtusifolia, CAO); assay: Pre-emerge test, sicklepod; settings: 250 g ai/ha, 14 days after application, rating scale 0-100 (0 no damage, 100 complete death)
# Outline: as §2
# [28] = system: velvetleaf (Abutilon theophrasti, ABT); assay: Pre-emerge test, velvetleaf; settings: 250 g ai/ha, 14 days after application, rating scale 0-100 (0 no damage, 100 complete death)
# Outline: as §2
# [29] = system: barnyardgrass (Echinachloa crus-galli, ECC); assay: Post-emerge test, barnyardgrass; settings: 250 g ai/ha, 14 days after application, rating scale 0-100 (0 no damage, 100 complete death)
# Outline: as §1
# [30] = system: redroot pigweed (Amaranthus retroflexus, AMR); assay: Pre-emerge test, redroot pigweed; settings: 250 g ai/ha, 14 days after application, rating scale 0-100 (0 no damage, 100 complete death)
# Outline: as §2
# [31] = post-emerge, 250 g ai/ha, 14 days after application, rating scale 0-100 (0 no damage, 100 complete death)
# [32] = pre-emerge, 250 g ai/ha, 14 days after application, rating scale 0-100 (0 no damage, 100 complete death)
# [33] = var. Tebonnet, Oryza sp. (upland rice), in vivo, 14 days
# [34] = Triticum aestivum (wheat), in vivo, 14 days
# [35] = var. Dekalb 535, Zea mays (field corn), in vivo, 14 days
# [36] = var. Pella 86, Glycine max (soybean), in vivo, 14 days
Structure (SMILES),Post-emerge Herbicidal Activity DIS (phytotoxicity rating) [1],Pre-emerge Herbicidal Activity IPH (phytotoxicity rating) [2],Pre-emerge Herbicidal Activity XAS (phytotoxicity rating) [3],Pre-emerge Herbicidal Activity CHA (phytotoxicity rating) [4],Pre-emerge Herbicidal Activity ECC (phytotoxicity rating) [5],Post-emerge Herbicidal Activity AML (phytotoxicity rating) [6],Post-emerge Herbicidal Activity IPH (phytotoxicity rating) [8],Pre-emerge Herbicidal Activity DIS (phytotoxicity rating) [9],Post-emerge Herbicidal Activity XAS (phytotoxicity rating) [10],Post-emerge Herbicidal Activity AMR (phytotoxicity rating) [11],Pre-emerge Herbicidal Activity AML (phytotoxicity rating) [12],Post-emerge Herbicidal Activity ABT (phytotoxicity rating) [13],Pre-emerge Herbicidal Activity SEV (phytotoxicity rating) [14],Pre-emerge Herbicidal Activity SOH (phytotoxicity rating) [15],Post-emerge Herbicidal Activity CHA (phytotoxicity rating) [18],Post-emerge Herbicidal Activity SOH (phytotoxicity rating) [19],Post-emerge Herbicidal Activity CAO (phytotoxicity rating) [21],Post-emerge Herbicidal Activity SEV (phytotoxicity rating) [26],Pre-emerge Herbicidal Activity CAO (phytotoxicity rating) [27],Pre-emerge Herbicidal Activity ABT (phytotoxicity rating) [28],other results
Cn1nc(-c2c(F)cc3c4c2NC(=O)C(c2ccccc2)N4C(=O)CO3)c(Cl)c1C(F)(F)F (stereo not drawn) [1-21],0,95,40,100,75,75,75,99,80,95,98,75,98,85,99,0,5,50,60,100,"Post-emerge crop damage RICE (phytotoxicity rating) [7, 31]: 55; Pre-emerge crop damage RICE (phytotoxicity rating) [16, 32]: 0; Pre-emerge crop damage WHEAT (phytotoxicity rating) [17, 32]: 20; Post-emerge crop damage WHEAT (phytotoxicity rating) [20, 31]: 45; Pre-emerge crop damage CORN (phytotoxicity rating) [22, 32]: 0; Post-emerge crop damage CORN (phytotoxicity rating) [23, 31]: 10; Post-emerge crop damage SOY (phytotoxicity rating) [24, 31]: 25; Pre-emerge crop damage SOY (phytotoxicity rating) [25, 32]: 35; Post-emerge Herbicidal Activity ECC (phytotoxicity rating) [29]: 25; Pre-emerge Herbicidal Activity AMR (phytotoxicity rating) [30]: 100"
"Cn1nc(-c2c(F)cc3c4c2NC(=O)CN4C(=O)CO3)c(Cl)c1OC(F)F [1-25, 8-[4-Chloro-5-(difluoromethoxy)-1-methyl-1H-pyrazole-3-yl)-9-fluoro-5H-pyrazino[1,2,3-de]-1,4-benzoxazine-3,6(2H, 7H)-dione]",60,100,95,100,100,99,100,100,100,100,100,100,100,100,100,60,100,100,100,100,"Post-emerge crop damage RICE (phytotoxicity rating) [7, 33]: 100; Pre-emerge crop damage RICE (phytotoxicity rating) [16, 33]: 85; Pre-emerge crop damage WHEAT (phytotoxicity rating) [17, 34]: 85; Post-emerge crop damage WHEAT (phytotoxicity rating) [20, 34]: 60; Pre-emerge crop damage CORN (phytotoxicity rating) [22, 35]: 99; Post-emerge crop damage CORN (phytotoxicity rating) [23, 35]: 35; Post-emerge crop damage SOY (phytotoxicity rating) [24, 36]: 100; Pre-emerge crop damage SOY (phytotoxicity rating) [25, 36]: 40; Post-emerge Herbicidal Activity ECC (phytotoxicity rating) [29]: 95; Pre-emerge Herbicidal Activity AMR (phytotoxicity rating) [30]: 100"
